Experimental data published in patent publication US9499599B2, “Composition and methods for stimulating gastrointestinal motility” (Ipsen Pharma S.A.S., priority 2005, dated 2016).
Non-standard residues stand in square brackets, D forms with d. Residues, ends and D or L forms follow the SMILES beside them. No end group written: not given here. Ala(4-thiazolyl) = N[C@@H](Cc1cscn1)C(=O)O; d2Nal = N[C@H](Cc1ccc2ccccc2c1)C(=O)O; dBta = N[C@H](Cc1csc2ccccc12)C(=O)O; Api = NC1(C(=O)O)CCNCC1; Inp = O=C(O)C1CCNCC1

Assays:
[1] = system: rats; conditions: cited from earlier work
[2] = system: mice; conditions: cited from earlier work
[3] = system: septic mice; conditions: cited from earlier work
[4] = target: T1, human recombinant GHS receptor (Homo sapiens, UniProt Q92847); assay: GHS-receptor binding assay, (125I)ghrelin displacement; conditions: 0.05 nM (125I)ghrelin, membranes of CHO-K1 cells expressing human recombinant GHS receptor, 60 min at 4° C.
T1 construct: The full length human GHS-R was subcloned into the mammalian expression vector pcDNA 3.1; expressed in transfected cells; membrane homogenates used
Method: Membranes for radioligand binding studies can be and were prepared by homogenization of the foregoing CHO-K1 cells expressing the human recombinant GHS receptor. The cells were homogenized in 20 ml of ice-cold 50 mM Tris-HCl using a Brinkman Polytron® (Westbury, N.Y.; setting 6, 15 sec). The homogenates were washed twice by centrifugation (39,000 g/10 min) and the final pellets were resuspended in 50 mM Tris-HCl containing 2.5 mM MgCl2 and 0.1% bovine serum albumin (BSA).

[5] = system: male Sprague Dawley rats; assay: Effect on POI in rat (laparotomy-induced gastric ileus), gastric emptying; format: in vivo; conditions: 3 centimeter laparotomy, administered subcutaneously
[6] = system: male Sprague Dawley rats; assay: In vivo gastric emptying, intravenous administration, phenol red meal; design: species or system rat; conditions: fasted anesthetized rats, administered intravenously
Method: Selected compounds of the invention can be and were tested to determine the effect of the compounds upon gastric emptying. […] Native ghrelin, the selected ghrelin analog and a metoclopramide control compound were administered intravenously to anesthetized test subjects. Approximately five minutes after the initial administration of native ghrelin, the selected ghrelin analog or the control compound, a 1.5 ml meal marked with phenol red (0.5 mg/ml phenol red and 1.5% methyl cellulose in whole milk) was administered to each test subject by esophageal gavage. After approximately an additional 20 minutes, the test subjects were sacrificed by cervical rupture and the stomachs removed and individually pulverized. The residual phenol red in the stomach of the test subjects was extracted and was measured spectrophometrically at a wavelength of 560 nm.

[7] = system: rats; assay: In vivo study on intestinal transit, charcoal meal; design: species or system rat; conditions: fasted anesthetized rats, charcoal meal by esophageal gavage
Method: In the study, groups of eight rats were fasted for approximately 24 hours with free access to water. Anesthetized test subjects were administered native ghrelin, the selected analog and atropine as a control. The test subjects were administered a 2 ml charcoal meal by esophageal gavage approximately five minutes after the initial administration of ghrelin, the selected analog or atropine. After approximately an additional 25 minutes, the test subjects were sacrificed by cervical rupture and the small intestines were removed. The distance the charcoal traveled was measured from the pylorus.

[8] = system: male Sprague Dawley rats; assay: In vivo gastric emptying, subcutaneous administration, phenol red meal; design: species or system rat; conditions: fasted rats, injected subcutaneously, varying doses
Method: The animals were injected subcutaneously with either vehicle or varying doses of native ghrelin or selected ghrelin analogs. After approximately 15 minutes, 1.5 ml of a phenol red marked nutrient meal (0.5 mg/ml phenol red & 1.5% methyl cellulose in whole milk) was administered orally to the rats. […] The residual phenol red in the stomach was extracted and measured by spectrophotometric methods at a wavelength of 560 nm. […] (see Figures)

[9] = system: patients with diabetic gastroparesis; conditions: cited from earlier work
[10] = system: Ferrets; conditions: ferrets exposed to cisplatin, intracerebroventricular administration; cited from earlier work
[11] = system: rats; conditions: post-operative ileus model; cited from earlier work
[12] = system: laparectomized dogs; conditions: cited from earlier work

T1 sequence (Q92847 whole entry): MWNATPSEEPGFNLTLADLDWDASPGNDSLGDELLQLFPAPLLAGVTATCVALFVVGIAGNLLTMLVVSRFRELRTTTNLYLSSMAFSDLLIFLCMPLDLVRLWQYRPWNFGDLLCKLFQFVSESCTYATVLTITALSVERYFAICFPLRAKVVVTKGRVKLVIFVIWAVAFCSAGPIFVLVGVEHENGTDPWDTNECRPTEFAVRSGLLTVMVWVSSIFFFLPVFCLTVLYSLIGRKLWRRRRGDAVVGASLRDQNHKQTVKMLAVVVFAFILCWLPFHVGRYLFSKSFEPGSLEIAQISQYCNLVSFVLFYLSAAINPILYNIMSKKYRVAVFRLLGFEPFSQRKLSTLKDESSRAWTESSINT

| Molecule | effect on gastric emptying [1] | effect on gastric emptying [2] | effect on gastric emptying [3] | effect on transit in the small intestine [3] | Ki [4] [pM] | effect on gastric emptying under post-operative ileus conditions [5] | effect on gastric emptying (residual phenol red in stomach) [6] | effect on intestinal transit (distance the charcoal traveled from the pylorus) [7] | effect on gastric emptying (residual phenol red in stomach) [8] | further results |
| --- | --- | --- | --- | --- | --- | --- | --- | --- | --- | --- |
| His-D-Trp-Ala-Trp-D-Phe-Lys-amide (H[dW]AW[dF]K-NH2) [GHRP-6] | accelerate gastric emptying | accelerate gastric emptying | accelerated gastric emptying | little effect upon increasing transit in the small intestine |  |  |  |  |  |  |
| NCCCC[C@H](NC(=O)[C@H](Cc1cscn1)NC(=O)[C@@H](Cc1c[nH]c2ccccc12)NC(=O)[C@@H](Cc1ccc2ccccc2c1)NC(=O)C1CCNCC1)C(N)=O [Example #37, H-Inp-D-2-Nal-D-Trp-Taz-Lys-NH2] (H-[Inp][d2Nal][dW][Ala(4-thiazolyl)]K-NH2) |  |  |  |  | 800 |  |  |  |  |  |
| NC(=O)C1(NC(=O)[C@H](Cc2ccccc2)NC(=O)[C@@H](Cc2c[nH]c3ccccc23)NC(=O)[C@@H](Cc2csc3ccccc23)NC(=O)C2CCNCC2)CCNCC1 [Example #19, H-Inp-D-Bal-D-Trp-Phe-Apc-NH2] (H-[Inp][dBta][dW]F[Api]-NH2) |  |  |  |  |  | significantly accelerated gastric emptying | accelerated gastric emptying | accelerated gastric intestinal transit | accelerated gastric emptying |  |
| H-Gly-Ser-Ser-Phe-Leu-Ser-Pro-Glu-His-Gln-Arg-Val-Gln-Gln-Arg-Lys-Glu-Ser-Lys-Lys-Pro-Pro-Ala-Lys-Leu-Gln-Pro-Arg-NH2 (H-GSSFLSPEHQRVQQRKESKKPPAKLQPR-NH2) [ghrelin, orexigenic hormone, native ligand for the GHS receptor] | accelerate gastric emptying | accelerate gastric emptying | accelerated gastric emptying | little effect upon increasing transit in the small intestine |  | significantly accelerated gastric emptying | accelerated gastric emptying | accelerated gastric intestinal transit | accelerated gastric emptying | effect on gastric emptying [9]: increase gastric emptying; occurrences of retching and vomiting [10]: significantly reduced occurrences of retching and vomiting; effect on delay of gastric emptying [11]: reverse the delay of gastric emptying; effect on POI [12]: improve POI |
| NCCCC[C@H](NC(=O)[C@H](Cc1ccccc1)NC(=O)[C@@H](Cc1c[nH]c2ccccc12)NC(=O)[C@@H](Cc1ccc2ccccc2c1)NC(=O)C1CCNCC1)C(N)=O [Example #2, Inp-D-2-Nal-D-Trp-Phe-Lys-NH2] (HELM PEPTIDE1{[O=C(C1CCNCC1)[*:2]].[O=C([C@@H](Cc1ccc2ccccc2c1)N[*:1])[*:2]].[dW].F.K.[am]}$$$$V2.0) |  |  |  |  | 300 |  |  |  |  |  |
